Assay [1] addresses T1, Estrogen receptor (Homo sapiens) (UniProt P03372).
T1 sequence (whole entry): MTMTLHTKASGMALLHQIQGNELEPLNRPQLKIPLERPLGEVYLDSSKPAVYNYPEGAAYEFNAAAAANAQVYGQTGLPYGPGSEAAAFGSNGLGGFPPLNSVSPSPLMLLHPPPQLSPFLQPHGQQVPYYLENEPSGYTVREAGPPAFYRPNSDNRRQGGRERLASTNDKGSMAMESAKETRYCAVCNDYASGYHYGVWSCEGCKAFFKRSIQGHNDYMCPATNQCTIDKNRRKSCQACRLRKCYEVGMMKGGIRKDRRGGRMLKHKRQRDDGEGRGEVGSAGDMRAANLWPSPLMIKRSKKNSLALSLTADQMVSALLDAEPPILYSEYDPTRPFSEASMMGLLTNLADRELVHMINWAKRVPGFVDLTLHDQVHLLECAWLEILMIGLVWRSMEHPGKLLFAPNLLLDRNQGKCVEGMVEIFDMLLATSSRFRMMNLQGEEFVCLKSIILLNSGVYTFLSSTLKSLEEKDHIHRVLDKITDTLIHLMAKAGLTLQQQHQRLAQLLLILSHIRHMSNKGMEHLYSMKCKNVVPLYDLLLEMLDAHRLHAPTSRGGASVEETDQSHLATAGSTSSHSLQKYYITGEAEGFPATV
The experiment in a line: Agonist activity at ERalpha (301 to 553 amino acid residues) (unknown origin) assessed as induction of interaction with SRC1 after 24 hrs by yeast two-hybrid assay relative to isopaucifloral F.

The target of assay [2] is T1, Estrogen receptor (Homo sapiens). Description: Antagonist activity at ERalpha (301 to 553 amino acid residues) (unknown origin) assessed as inhibition of E2 induced interaction with SRC1 after 24 hrs by yeast-two-hybrid assay. Further details: concentration or dose not given beside the values; scale not given: the % may be the effect or the level left.
The next assay deals with Estrogen receptor beta (Homo sapiens, UniProt Q92731). The experiment in a line: Agonist activity at ERbeta (248 to 510 amino acid residues) (unknown origin) assessed as induction of interaction with SRC1 after 24 hrs by yeast two-hybrid assay.
The subject of assay [3] is Rattus norvegicus. The experiment in a line: Antiosteoporotic activity in ovariectomized Sprague-Dawley rat assessed as bone volume /tissue volume at 1 ug/kg, po qd at 6th week by micro-CT analysis (reference value: 41.33 +/- 5.04%). The assay is classed as functional.
Assay [4] relates to Rattus norvegicus. The experiment in a line: Antiosteoporotic activity in ovariectomized Sprague-Dawley rat assessed as bone volume /tissue volume at 1 ug/kg, po qd at 12th week by micro-CT analysis (reference value: 31.61 +/- 2.39%). The assay is classed as functional.
Assay [5] relates to Rattus norvegicus. The experiment in a line: Antiosteoporotic activity in ovariectomized Sprague-Dawley rat assessed as bone volume /tissue volume at 1 ug/kg, po qd at 18th week by micro-CT analysis (reference value: 27.36 +/- 1.99%). The assay is classed as functional.
Assay [6] relates to Rattus norvegicus. Description: Antiosteoporotic activity in ovariectomized Sprague-Dawley rat assessed as trabecular thickness at 1 ug/kg, po qd at 6th week by micro-CT analysis (reference value: 0.086 +/- 0.0069 millimeter). The assay is classed as functional, Trabecula.
For assay [7], the system named is Rattus norvegicus. The experiment in a line: Antiosteoporotic activity in ovariectomized Sprague-Dawley rat assessed as trabecular thickness at 1 ug/kg, po qd at 12th week by micro-CT analysis (reference value: 0.070 +/- 0.0063 millimeter). The assay is classed as functional, Trabecula.
In assay [8] the test system is Rattus norvegicus. The experiment in a line: Antiosteoporotic activity in ovariectomized Sprague-Dawley rat assessed as trabecular thickness at 1 ug/kg, po qd at 18th week by micro-CT analysis (reference value: 0.103 +/- 0.0044 millimeter). The assay is classed as functional, Trabecula.
The test system of assay [9] is Rattus norvegicus. The experiment in a line: Antiosteoporotic activity in ovariectomized Sprague-Dawley rat assessed as trabecular separation at 1 ug/kg, po qd at 6th week by micro-CT analysis (reference value: 0.116 +/- 0.010 millimeter). The assay is classed as functional, Trabecula.
Assay [10] has as its system Rattus norvegicus. Description: Antiosteoporotic activity in ovariectomized Sprague-Dawley rat assessed as trabecular separation at 1 ug/kg, po qd at 12th week by micro-CT analysis (reference value: 0.146 +/- 0.010 millimeter). The assay is classed as functional, Trabecula.
The test system of assay [11] is Rattus norvegicus. Description: Antiosteoporotic activity in ovariectomized Sprague-Dawley rat assessed as trabecular separation at 1 ug/kg, po qd at 18th week by micro-CT analysis (reference value: 0.234 +/- 0.021 millimeter). The assay is classed as functional, Trabecula.
For assay [12], the system named is Rattus norvegicus. The experiment in a line: Antiosteoporotic activity in ovariectomized Sprague-Dawley rat assessed as serum osteocalcin level at 1 ug/kg, po qd at 12th week by enzyme immunoassay (reference value: 1055.8 +/- 14 ng/ml). The assay is classed as functional.
For assay [13], the system named is Rattus norvegicus. Description: Antiosteoporotic activity in ovariectomized Sprague-Dawley rat assessed as serum osteocalcin level at 1 ug/kg, po qd at 18th week by enzyme immunoassay (reference value: 1118.9 +/- 37.77 ng/ml). The assay is classed as functional.

By EC50 is commonly meant the concentration needed to bring the measured effect to its halfway point.

Estrogen receptor beta, sequence (Q92731 whole entry, the tested form may be a part): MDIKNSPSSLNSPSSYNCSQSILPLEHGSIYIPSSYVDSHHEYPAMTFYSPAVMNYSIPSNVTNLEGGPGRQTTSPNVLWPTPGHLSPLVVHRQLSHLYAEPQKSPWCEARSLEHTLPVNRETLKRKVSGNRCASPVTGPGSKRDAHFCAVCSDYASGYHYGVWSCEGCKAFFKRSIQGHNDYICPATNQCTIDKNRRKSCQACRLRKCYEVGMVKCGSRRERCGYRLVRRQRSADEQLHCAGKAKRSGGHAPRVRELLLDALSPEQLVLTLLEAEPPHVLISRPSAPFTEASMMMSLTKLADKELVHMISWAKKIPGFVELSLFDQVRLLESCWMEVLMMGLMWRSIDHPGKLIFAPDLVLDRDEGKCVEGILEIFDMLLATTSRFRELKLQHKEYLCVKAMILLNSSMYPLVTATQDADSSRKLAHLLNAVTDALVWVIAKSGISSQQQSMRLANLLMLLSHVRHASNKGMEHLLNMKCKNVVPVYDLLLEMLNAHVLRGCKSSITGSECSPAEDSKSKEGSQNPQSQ

On to `Oc1ccc(C2C(c3cc(O)cc(O)c3)=C(Cc3ccc(Cl)cc3)c3cc(O)cc(O)c32)cc1` (stereo not given), for which the fold change (FC) in assay [1] is 0.88. Moreover, the Activity in assay [2] is 15.2%. At Estrogen receptor beta, the concentration for a half-maximal effect (EC50) worked out at 45.8 µM.
For `Cc1ccc([C@@H]2c3c(O)cc(O)cc3[C@H]3[C@H](c4ccc(O)cc4)c4c(O)cc(O)cc4[C@@H]23)cc1`, the fold change (FC) in assay [1] turned out to be 0.99. In addition, the Activity in assay [2] was determined as 0%. At Estrogen receptor beta, the EC50 is 5.65 µM.
Turning to `Oc1cc(O)c2c(c1)[C@H]1[C@H](c3ccccc3)c3c(O)cc(O)cc3[C@H]1[C@@H]2c1ccccc1`, the fold change (FC) in assay [1] turned out to be 0.86. Also, the Activity in assay [2] is 0%.
`Oc1cc(O)cc(C2=C(Cc3ccccc3)c3cc(O)cc(O)c3C2c2ccccc2)c1` (stereo not given): in assay [1], the fold change (FC) was 0.88. The Activity in assay [2] worked out at 0%.
With `Oc1ccc(/C=C/c2cc(O)cc(O)c2)cc1`, the fold change (FC) in [1] amounted to 0.1. In [2], the Activity amounted to 0%.
With `Oc1ccc(/C=C2/c3cc(O)cc(O)c3[C@@H](c3ccc(O)cc3)[C@@H]2c2cc(O)cc(O)c2)cc1`, in [1], the fold change (FC) is 0.92. In addition, the Activity in [2] came out at 20.9%.
On to `Oc1ccc(C2C(c3cc(O)cc(O)c3)=C(Cc3ccc(F)cc3)c3cc(O)cc(O)c32)cc1` (stereo not given), for which the fold change (FC) in assay [1] turned out to be 0.83. Besides, the Activity in assay [2] is 1.59%.
For the molecule `Oc1ccc(C2C(c3cc(O)cc(O)c3)=C(Cc3ccccc3)c3cc(O)cc(O)c32)cc1` (stereo not given), in assay [1], the fold change (FC) was found to be 0.98. In addition, the Activity in assay [2] is 2%.
In the case of `Oc1ccc(CC2=C(c3cc(O)cc(O)c3)C(c3ccc(O)cc3)c3c(O)cc(O)cc32)cc1` (stereo not given), the fold change (FC) in assay [1] is 0.94. The Activity in assay [2] was found to be 5.84%.
On the same counts, the results for `Oc1ccc(CC2=C(c3cc(O)cc(O)c3)C(c3ccccc3)c3c(O)cc(O)cc32)cc1` (stereo not given) are 0.86 and 8.48%.
`Oc1ccc([C@@H]2c3c(O)cc(O)cc3[C@H]3[C@H](c4ccc(F)cc4)c4c(O)cc(O)cc4[C@@H]23)cc1`: the fold change (FC) in assay [1] is 0.95. Moreover, the Activity in assay [2] was determined as 0%.
Regarding `Oc1ccc([C@@H]2c3c(O)cc(O)cc3[C@H]3[C@H](c4ccc(O)cc4)c4c(O)cc(O)cc4[C@@H]23)cc1`, the fold change (FC) in assay [1] was determined as 1.01. For the same molecule, the Activity in assay [2] was found to be 5.23%.
As for `Oc1ccc([C@@H]2c3c(O)cc(O)cc3[C@H]3[C@H](c4ccccc4)c4c(O)cc(O)cc4[C@@H]23)cc1`, the fold change (FC) in assay [1] is 0.94. In addition, the Activity in [2] was 0.76%.
Consider `O=C1c2cc(O)cc(O)c2[C@@H](c2ccc(F)cc2)[C@@H]1c1cc(O)cc(O)c1` (relative stereo), for which, in [1], the fold change (FC) amounted to 0.94. In addition, in assay [2], the Activity was determined as 7.61%.
On the same counts, the results for `O=C1c2cc(O)cc(O)c2[C@@H](c2ccccc2)[C@@H]1c1cc(O)cc(O)c1` (relative stereo) are 0.97 and 7.59%.
With `Oc1ccc([C@@H]2c3c(O)cc(O)cc3C(O)[C@H]2c2cc(O)cc(O)c2)cc1` (relative stereo), the fold change (FC) in [1] is 1.04. Moreover, the Activity in [2] was 24.5%.
With `O=c1c(-c2ccc(O)cc2)coc2cc(O)cc(O)c12` [GENISTEIN], the Activity in the assay with Rattus norvegicus [3] was 40.5%; in the assay on Rattus norvegicus [4] it was 40.62%; with Rattus norvegicus [5], 41.62%; in the assay on Rattus norvegicus [6], 0.084 mm; in the assay with Rattus norvegicus [7] it was 0.079 mm; in the assay on Rattus norvegicus [8], 0.102 mm. Also, the Activity with Rattus norvegicus [9] was 0.125 mm; in the assay on Rattus norvegicus [10] it was 0.134 mm; in the assay on Rattus norvegicus [11], 0.157 mm; with Rattus norvegicus [12], 954.33 ng/mL; in the assay on Rattus norvegicus [13], 882.76 ng/mL.

For the origin of these results see ChEMBL document CHEMBL3616426 (Eur J Med Chem, 2015).
